Measurements: PMC12040169 (PLOS Biology, 2025)

Experiment: in vitro
Details: human, hela cells

SMILES | viability at 28.5 h, 10 µM (% viability) [%] | also measured
CC(C)(C)c1ccc(C(=O)N2CCC(C(=O)O)CC2)cc1 [CBK286949] | 108 | 
CN1C2C=C(N(CCc3ccccc3)C(=O)c3ccc(Cl)cc3)CC1CC2 (centres unmarked) [CBK262604C] | 94.7 | 
CCN1CCN(Cc2c(O)ccc3c(=O)c(-c4ccccc4OC)c(C(F)(F)F)oc23)CC1 [CBK263692] | 87.6 | 
O=C(Cc1ccc(Br)cc1)N1CCC(Cc2ccccc2)CC1 [CBK058493] | 96.7 | 
CC(C)(C)c1ccc(-c2nc(N)cc3ccccc23)cc1 [CBK085720] | 109 | 
Cc1nnc(SCC(=O)N2c3ccccc3Sc3ccccc32)n1N [CBK265920] | 96.5 | 
O=C(CCn1c(C(F)(F)F)cc2cccnc21)N1CCCC1 [CBK284962] | 106 | 
COc1cncc(C(NC(=O)Cc2cn3ccsc3n2)[C@H]2C[C@H](O)C2)c1 (some centres unmarked) [CBK306642] | 97.2 | 
O=C(O)CC(C(=O)Nc1ccc(Cl)cc1)C1CCCO1 (centres unmarked) [CBK264583] | 94.2 | 
CN1CCN(c2nc3c(c(=O)n(C)c(=O)n3C)n2CCSc2nc3ccccc3o2)CC1 [CBK269452] | 90 | 
CS(=O)(=O)N1CC2(CCN(CCCC#N)CC2)c2ccccc21 [CBK084014] | 97.9 | 
Cc1cc(C(=O)CSc2nnc(C(C)C)n2Cc2ccco2)c(C)n1C [CBK295178] | 81.9 | 
COc1ccccc1-c1nnc(SCC(=O)Nc2nccs2)o1 [CBK287390] | 107 | 
NC(=O)C(=O)Nc1nc(-c2ccccc2)cs1 [CBK263005] | 98.4 | 
C=CCNC(=O)c1cc(Br)cnc1NCC1CC1 [CBK076424] | 102 | 
O=C(CCc1ccccc1)N/N=C/c1cc2c(cc1[N+](=O)[O-])OCO2 [CBK261221] | 111 | 
Cc1nc(NCCO)c2c3c(sc2n1)CCCC3 [CBK131920] | 90.1 | 
O=C1Nc2ccccc2C1Cc1cccc(OC(F)F)c1 (centres unmarked) [CBK287892] | 95 | 
CCc1cccc(-n2nc(C)c3c2NC(=O)CC3C(=O)c2ccc(CC)s2)c1 (centres unmarked) [CBK294435] | 113 | 
Cc1ccc(CS(=O)(=O)N2CCC3(CC2)CNC(=O)C3)cc1 [CBK283344] | 88.5 | 
COc1ccc(CCNc2ncnc3[nH]cnc23)cc1OC [CBK134342] | 110 | 
CC(C(=O)Nc1c(F)cc(F)cc1OC1CCNCC1)c1ccccc1 (centres unmarked) [CBK045896T] | 103 | 
COc1ccc(NS(=O)(=O)c2ccc(OCC(=O)N3CCN(C)CC3)cc2)cc1Cl [CBK269565] | 85.8 | 

SMILES | viability at 28.5 h, 10 µM (% viability) [%] | also measured
COc1cccc(N2CCN(CC(CC(=O)Nc3ccccc3)C(=O)O)CC2)c1 (centres unmarked) [CBK286813] | 89.8 | 
Fc1ccc2nc(Nc3nc(-c4ccncc4)cs3)sc2c1 [CBK287487] | 105 | 
COc1ccc(C(=O)N2CCC3(CCN(Cc4ccc(OC(F)(F)F)cc4)C3)C2)cc1OC (centres unmarked) [CBK132148] | 89 | 
CCOC(=O)N1CCC(NC(=O)N2CCCC(C(=O)N(CC)CC)C2)CC1 (centres unmarked) [CBK156159] | 109 | 
COc1ncc(-c2cnc(N)c(-c3ccc(C=O)cc3)n2)c(OC)n1 [CBK064110] | 94.1 | 
CCCCN(C)S(=O)(=O)c1ccc(C(C)(C)CC)cc1 [CBK044836] | 89.9 | 
COc1cc(C)nc(NC(=O)Nc2cccc(Cl)c2)n1 [CBK269828] | 94.2 | 
O=c1cc(O)c2cc([N+](=O)[O-])ccc2n1CCc1ccccc1 [CBK291165] | 90.8 | 
Cc1cc(OCC(=O)N2CCNC(=O)C2)c2c(C)c(C)c(=O)oc2c1 [CBK307624] | 94.7 | 
O=C(C1CCCC1)N1CCCc2cc(C(O)CN3CCCC3)ccc21 (centres unmarked) [CBK282145] | 94.2 | 
CCn1cc(NC(=O)NC2CCN(c3ncccc3C#N)CC2)c(C)n1 [CBK307213] | 93.1 | 
OCc1ccccc1-c1cncc(NCc2cccs2)n1 [CBK065345] | 104 | 
COc1ccc([C@@]23CC[C@H](NC(=O)CS(=O)(=O)c4ccccc4)C[C@@H]2N(C)CC3)cc1OC [CBK036445] | 105 | 
Fc1ccccc1CSc1nc2ccc[nH]c-2n1 [CBK287883] | 91.2 | 
O=[N+]([O-])c1cccc(S(=O)(=O)Nc2nnc(C(F)(F)F)s2)c1 [CBK062002] | 118 | 
CN(C)CCCNC(=O)c1cnc2cc(Cl)ccc2c1O [CBK107354] | 94.4 | 
CN1C2CCC1CC(OC(=O)CN1CCCCC1)C2 (centres unmarked) [CBK278166C] | 109 | 
CC(C)CNC(=O)N1CCN(C2CCN(C)CC2)CC1 [CBK155902] | 95.3 | 
N=C(N/N=C\c1ccncc1)N/N=C\c1ccncc1 [CBK263278C] | 94.1 | 
CCN(CC)c1ccc(SC)n1C [CBK020929] | 104 | 
Cc1ccc(-c2cc(C(=O)Nc3ccc(S(N)(=O)=O)cc3)c3ccc(Cl)c(C)c3n2)cc1 [CBK267745] | 111 | 
CC(C)NC(=O)c1cc(C2CN(C(=O)CCc3ccccc3F)CCO2)nc2ccccc12 (centres unmarked) [CBK285893] | 109 | 
CCC1(C)Cc2sc3[nH]c(=O)c(SCC(N)=O)nc3c2CO1 (centres unmarked) [CBK020581] | 87.3 | 

SMILES | viability at 28.5 h, 10 µM (% viability) [%] | also measured
CCCC/C=C/c1cnc2[nH]c(=O)n(C3CCOCC3)c2n1 [CBK064253] | 98.1 | 
Cc1ccc(NC(=O)c2cnc3sc(C)cn3c2=O)cc1 [CBK287711] | 97.8 | 
CCN1C(=O)CC2(C1=O)C(=O)N(CCc1cccs1)c1ccccc12 (centres unmarked) [CBK075521] | 91.4 | 
CC(C)[C@H](NS(=O)(=O)c1ccc(Cl)cc1)C(=O)NCc1ccc(Cn2cccn2)cc1 [CBK295611] | 104 | 
Cc1nc(CC(=O)N2[C@H]3CCCCCN(C)[C@@]3(C)C[C@H]2c2ccccc2)cs1 [CBK286104] | 109 | 
c1ccc2c(Sc3cncc(N4CCCC4)n3)cccc2c1 [CBK089594] | 88.2 | 
Cn1c(SCCC(=O)O)nnc1-c1cccnc1 [CBK269077] | 108 | 
COc1ccc(C(=O)Nc2nsc(-c3ccccc3)n2)cc1 [CBK113233] | 97.2 | 
CCOc1ccc(NC(=O)c2c(O)c3ccccc3n(CC)c2=O)cc1 [CBK287771] | 107 | 
O=S(=O)(N1CCCCCC1)N1CCN(S(=O)(=O)N2CCCCC2)CC1 [CBK269001] | 114 | 
COc1cc(C)nc(OCCNS(=O)(=O)c2cc(C)ccc2C)n1 [CBK058870] | 91.9 | 
COC(=O)c1ccc(NC(=O)CCN2C(=O)c3cccc([N+](=O)[O-])c3C2=O)cc1 [CBK263137] | 98.1 | 
Cc1nn(CCC(=O)NC2CCOc3ccccc32)c(C)c1Cl (centres unmarked) [CBK281684] | 96.7 | 
Cc1cccc(OC(=O)C2C(c3ccccc3)C(C(=O)O)C2c2ccccc2)c1 (centres unmarked) [CBK263843] | 94 | 
CC(Sc1ccccn1)C(=O)Nc1ccc(S(N)(=O)=O)cc1 (centres unmarked) [CBK265579] | 97.1 | 
COc1ccc(C(=O)Oc2ccc(C(c3c(C)n[nH]c3O)c3c(C)n[nH]c3O)cc2)cc1 [CBK264740] |  | viability at 28.5 h, 10 µM: 112%
C/C(=C1/SC(=S)N(c2cccc(C(=O)O)c2)C1=O)c1cccc([N+](=O)[O-])c1 [CBK265168] | 100 | 
COCCNC(=O)NCCCn1c(-c2ccncc2)nc2cccnc21 [CBK288581] | 98.6 | 
O=c1[nH]nc2c(S(=O)(=O)N3CCCCC3)cccn12 [CBK288450] | 74.9 | 
O=C(NCCN1CCOCC1)c1sc2cc(F)ccc2c1Cl [CBK018212] | 120 | 
CC(C)COc1ccc(-c2nonc2NC(=O)c2ccco2)cc1 [CBK299802] | 99.1 | 
CC(C)C(NC(=O)CSc1n[nH]c(=O)n1Cc1ccccc1)c1ccc2c(c1)OCCCO2 (centres unmarked) [CBK297875] | 106 | 
CCOC(=O)C1(Cc2ccc(F)cc2F)CCCN(C(C)=O)C1 (centres unmarked) [CBK307516] | 106 | 

SMILES | viability at 28.5 h, 10 µM (% viability) [%] | also measured
Clc1ccc(CN2CCC(Oc3nccnc3OCCN3CCOCC3)CC2)cc1 [CBK082918T] | 92.5 | 
O=C(CN1CCCC1c1cccs1)Nc1cccc(C(=O)NC2CC2)c1 (centres unmarked) [CBK305895] | 98.5 | 
CCCNCC(=O)N1CCN(C(=O)c2ccc(C)cc2)CC1 [CBK025546] | 103 | 
c1ccc(OCCSc2nc3ccccc3nc2N2CCCC2)cc1 [CBK103694] | 102 | 
Cc1ccc2nc(N3CCCC(O)C3)c(CN3CCSCC3)cc2c1 (centres unmarked) [CBK307000] | 94.7 | 
O=C(CSCc1cccc(Cl)c1)Nc1cccnc1 [CBK264114] | 95.9 | 
Cc1ccc(S(=O)(=O)Nc2sc3c(c2C(=O)N2CCN(C)CC2)CCCC3)cc1[N+](=O)[O-] [CBK028650] | 93.9 | 
CN(CC(=O)Nc1cc2ccccc2c(N2CCNCC2)n1)C(=O)c1ccccc1 [CBK028421T] | 93 | 
CCOC(=O)N1CCN(CC2CCCCN2)CC1 (centres unmarked) [CBK022780G] | 83.4 | 
O=C(CN1CCC2(CC1)CN(CCO)c1ccccc12)Nc1ccc(F)c(Cl)c1 [CBK126761] | 94.6 | 
COC(=O)c1cscc1NC(=O)c1cnc(-c2ccc(Cl)cc2)c(-c2ccco2)c1 [CBK036657] | 104 | 
COc1ccccc1-n1nc(-c2ccncc2)nc1C(C)NS(C)(=O)=O (centres unmarked) [CBK306868] | 98 | 
Cc1nnc(SCC(=O)NNC(=O)c2cccs2)[nH]1 [CBK266879] | 93.7 | 
Cc1nc(CC(=O)N2CCCC(c3cccc(Cc4ccc(Cl)cc4)n3)C2)cs1 (centres unmarked) [CBK286505] | 94.3 | 
CS(=O)(=O)N1C[C@@H]2CCCCN(Cc3cccc(F)c3F)[C@@H]2C1 [CBK285513] | 95.6 | 
COc1ccccc1CCNCc1ccccc1Br [CBK015149] |  | viability at 28.5 h, 10 µM (% viability, bulk resorufin, single well): 87%
N#CCCN(Cc1ccco1)C(=O)c1cccc(NC(=O)C2CC2)c1 [CBK304014] | 99.5 | 
Cc1cc(NS(=O)(=O)c2ccc(C(C)C)cc2)n[nH]1 [CBK044646] | 106 | 
COc1ccc(C(NC(=O)CCc2ccccc2)c2ccc3cccnc3c2O)cc1 (centres unmarked) [CBK293942] | 86 | 
C=CCNc1nc(N)c(/C(N)=N\C#N)s1 [CBK019028] | 99.3 | 
